Measurements taken from US9284283B2, “Macrocyclic compounds for modulating IL-17” (ENSEMBLE THERAPEUTICS CORPORATION, priority 2012, dated 2016).

Columns and labels:
[1] = target: T1, recombinant human IL17a (binding to its receptor IL17R) (Homo sapiens, UniProt Q16552); assay: IL-17 competition ELISA I (IL17a coated, IL17R/Fc binding)
T1 construct: purchased R&D Systems 317-ILB (IL17a); 177-IR (IL17R/Fc)
T1 sequence (Q16552 20-155 limits assumed): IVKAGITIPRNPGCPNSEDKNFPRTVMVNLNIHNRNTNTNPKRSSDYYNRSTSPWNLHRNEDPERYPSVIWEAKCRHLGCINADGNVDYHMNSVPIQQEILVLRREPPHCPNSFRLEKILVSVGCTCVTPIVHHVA
How it was run: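 Plates coated with 20 nM recombinant human IL17a received compound dilutions and 12 nM IL17R/Fc (final) for 30 min at room temperature. Bound receptor was detected with HRP anti-human Fc and TMB, read at 450 nm. IC50 came from a 4-parameter logistic fit between no-competitor and blank controls.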

[2] = target: T2, IL17A (Homo sapiens, UniProt Q16552); assay: Surface Plasmon Resonance (SPR) analysis of compound interactions with IL17A; conditions: SPR binding to IL17A
T2 sequence (Q16552 24-155): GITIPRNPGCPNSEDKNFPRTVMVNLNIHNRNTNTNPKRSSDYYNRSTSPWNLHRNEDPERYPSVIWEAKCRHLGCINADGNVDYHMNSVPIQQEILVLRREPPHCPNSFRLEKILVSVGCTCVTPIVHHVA
How it was run: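 His-tagged IL17A captured on a Ni-NTA chip; five 2- or 3-fold compound dilutions from 50 μM injected for 180 s, 120 s dissociation, in HEPES-saline buffer with 0.5% DMSO. Baseline-subtracted sensorgrams fitted 1:1 for ka, kd and KD; Kd also derived from binding extent per concentration.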

IC50 [1] [µM] | Kd [2] [µM] | SMILES
< 0.1 | < 0.1 | O=C1CNC(=O)[C@@H](Cc2ccc(NC(=O)[C@H](Cc3ccccc3Cl)NC(=O)Cc3ccccn3)cc2)NC(=O)CC2(CCCC2)CC(=O)NCCCCCN1 [Compound 226]
< 0.1 | < 0.1 | O=C1CNC(=O)[C@@H](Cc2ccc(NC(=O)[C@@H](NC(=O)Cc3ccccc3)C3CCCCC3)cc2)NC(=O)CC2(CCCC2)CC(=O)NCCCCCN1 [Compound 186]
< 0.1 | < 0.1 | O=C1CNC(=O)[C@@H](Cc2ccc(NC(=O)[C@H](Cc3ccccc3Cl)NC(=O)Cc3ccccc3)cc2)NC(=O)CC2(CCCC2)CC(=O)NCCCCCN1 [Compound 159]
0.1 to 1 | 0.1 to 1 | COC(=O)[C@@H]1CCCCNC(=O)CCCNC(=O)[C@@H](Cc2ccc(NC(=O)[C@H](Cc3ccccc3F)NC(=O)Cc3ccccc3)cc2)NC(=O)CC2(CCCC2)CC(=O)N1 [Compound 106]
< 0.1 | < 0.1 | O=C1CNC(=O)[C@@H](Cc2ccc(NC(=O)[C@H](Cc3ccc(Cl)cc3Cl)NC(=O)Cc3ccc(O)cc3)cc2)NC(=O)CC2(CCCC2)CC(=O)NCCCCCN1 [Compound 191]
< 0.1 | < 0.1 | O=C1CNC(=O)[C@@H](Cc2ccc(NC(=O)[C@H](Cc3ccccc3Cl)NC(=O)c3cccnc3)cc2)NC(=O)CC2(CCCC2)CC(=O)NCCCCCN1 [Compound 194]
< 0.1 | < 0.1 | O=C1CNC(=O)[C@@H](Cc2ccc(NC(=O)[C@H](Cc3ccc(Cl)cc3Cl)NC(=O)Cc3ccccc3)cc2)NC(=O)CC2(CCCC2)CC(=O)NCCCCCN1 [Compound 185]

SMILES | IC50 [1] [µM] | Kd [2] [µM]
COC(=O)[C@@H]1CCCCNC(=O)CNC(=O)[C@@H](Cc2ccc(NC(=O)[C@H](Cc3ccccc3Cl)NC(=O)Cc3ccccc3)cc2)NC(=O)CC2(CCCC2)CC(=O)N1 [Compound 143] | < 0.1 | < 0.1
COC(=O)[C@@H]1CCCCNC(=O)CNC(=O)[C@@H](Cc2ccc(NC(=O)[C@H](Cc3ccccc3Cl)NC(=O)c3ccccc3)cc2)NC(=O)CC2(CCCC2)CC(=O)N1 [Compound 144] | < 0.1 | < 0.1
